# Experimental data taken from patent US8865901B2, “Gain-of-function Bcl-2 inhibitors” (priority 2009, dated 2014).
# Where “and” joins values, the source holds several entries; their conditions need not be identical. Equal values may be shown once. Read-outs that look alike come from different tables or passages of the source.
# Experiments:
# [1] = system: TAMH cells overexpressing Bcl-xL (TAMH-Bcl-xL, Tabx2s); assay: Cytotoxicity / apoptosis induction in TAMH cells overexpressing Bcl-xL; type: cell-based
# Experimental: (§1) To examine the sensitivity of cells over-expressing Bcl-xL to various mitochondrial inhibitors and apoptosis inducers, cell lines over-expressing Bcl-xL were prepared and tested according to Hockenberry et al. U.S. Pat. No. 7,241,804, hereby incorporated by reference in its entirety. Competitive binding of compounds with fluorescent antimycin A3, and competitive binding of compounds with BH3 peptide and Bcl-2. Competitive binding of compounds with BH-3 peptide were also measured using Bcl-xL as previously described. Id.
# (§2) Cell lines were grown in RPMI 1640 medium (Gibco, Grand Island, N.Y.) supplemented with 5% fetal bovine serum (Hyclone, Logan, Utah). Also shown is the ratio of TAMH cells expressing Bcl-xL to those expressing A142L (WT:142L). The assay measures the potency of various compounds with respect to inducing apoptosis in these cells.
# (§3) The compounds described in Example 2 were tested for their ability to inhibit Bcl-2 gain-of-function in TAMH cells, TAMH cells overexpressing […] (TAMH-Bcl-xL), TAMH cells transfected with Neo vector (Neo), TAMH cells over expressing a variant of Bcl-xL (A142L) using the methods of Example 1. 3-6.
# (§4) The effects of the compounds described in Example 8 on TAMH cells, TAMH cells overexpressing Bcl-xL (TAMH-Bcl-xL), TAMH cells transfected with Neo vector (Neo), TAMH cells over expressing a variant of Bcl-xL (A142L) is shown in Table 8
# (§5) The effects of the compounds described in Example 10 on TAMH cells, TAMH cells overexpressing Bcl-xL (TAMH-Bcl-xL), TAMH cells transfected with Neo vector (Neo), TAMH cells over expressing a variant of Bcl-xL (A142L) is shown in the following Table 10
# [2] = system: TAMH cells transfected with Neo vector (Neo); assay: Cytotoxicity / apoptosis induction in TAMH cells transfected with Neo vector; type: cell-based; details: for IC50: read-out: IC50 TAMH Neo
# Experimental: as §1, §2, §3, §4, §5
# [3] = Table 13, read-out: IC50 TAMH Bcl-xL
# [4] = Table 10, read-out: IC50 TAMH Bcl-XL
# [5] = Table 15, read-out: IC50 TAMH Bcl-XL
structure (smiles),measurement,setting,value
Cc1cc(C)c(O)c(Cc2cccc(Cc3cc(C)cc(C)c3O)c2O)c1 [Compound 48168],Fold Select. (Neo/Bcl-xL),[1]; Table 13,0
Oc1c(CCl)cc(Cl)cc1Cc1cc(Cl)cc(Cc2cc(Cl)cc(CCl)c2O)c1O [Compound 48444],IC50,[2]; Table 13,12.1 µM
same,Fold Select. (Neo/Bcl-xL),[1]; Table 13,9.3
same,IC50,[1]; [3],1.3 µM
OCc1cc(Cl)cc(Cc2cc(Cl)cc(Cc3cc(Cl)cc(CO)c3O)c2O)c1O [Compound 48445],IC50,[2]; Table 13,4.5 µM
same,Fold Select. (Neo/Bcl-xL),[1]; Table 13,2.5
same,IC50,[1]; [3],1.8 µM
O=C(O)c1cc(Cl)cc(Cc2cc(Cl)cc(C(=O)O)c2O)c1O [Compound 48684],Fold Select. (Neo/Bcl-XL),[1]; Table 11,0
CC(=O)c1cc(Cl)cc(Cc2cc(Cl)cc(Cc3cc(Cl)cc(C(C)=O)c3O)c2O)c1O [Compound 48698],IC50,[2]; Table 13,5.7 µM
same,Fold Select. (Neo/Bcl-xL),[1]; Table 13,8.1
same,IC50,[1]; [3],0.7 µM
CC(=O)c1cc(Cc2cc(C)cc(C)c2O)c(O)c(Cc2cc(C)cc(C)c2O)c1 [Compound 48705],Fold Select. (Neo/Bcl-xL),[1]; Table 13,0
CN(Cc1cc(C(C)(C)C)cc(Br)c1O)Cc1cc(C(C)(C)C)cc(Br)c1O [Compound 48881],EC50,"[2]; Table 19, read-out: Neo",28 µM
same,Neo/Bcl-XL,[1]; Table 19,4.6
same,EC50,"[1]; Table 19, read-out: Bcl-XL",6.1 µM
Cc1cc(O)c(Sc2c(O)cc(C)c(Cl)c2C)c(C)c1Cl [Compound 52168],IC50,[2]; Table 10,5.2 µM
same,Fold Select. (Neo/Bcl-XL),[1]; Table 10,5.2
same,IC50,[1]; [4],1 µM
Oc1ccc(Cl)cc1Sc1cc(Cl)ccc1O [Compound 55636],EC50,"[2]; Table 8, read-out: TANH Neo",14.7 µM
same,IC50,[2]; Table 10,14.7 µM
same,EC50,"[1]; Table 8, read-out: TAMH Bcl-xL",1.9 µM
same,Neo/Bcl-xL,"[1]; Table 8, selectivity ratio",7.7
same,Fold Select. (Neo/Bcl-XL),[1]; Table 10,7.7
same,IC50,[1]; [4],1.9 µM
Cc1cc(Cc2cc(Cc3cc(C)cc(C(C)(C)C)c3O)c(C)cc2C)c(O)c(C(C)(C)C)c1 [Compound 57725],Fold Select. (Neo/Bcl-xL),[1]; Table 13,−0
Cc1cc(O)c(Sc2c(O)cc(C)cc2C(C)(C)C)c(C(C)(C)C)c1 [Compound 59685],IC50,[2]; Table 10,66.4 µM
same,Fold Select. (Neo/Bcl-XL),[1]; Table 10,5.5
same,IC50,[1]; [4],12 µM
Oc1ccc(Sc2ccc(O)cc2O)c(O)c1 [Compound 59828],Fold Select. (Neo/Bcl-XL),[1]; Table 11,0
CN(C)Cc1cc(Cl)cc(Sc2cc(Cl)cc(CN(C)C)c2O)c1O [Compound 62419],IC50,[2]; Table 10,36.1 µM
same,Fold Select. (Neo/Bcl-XL),[1]; Table 10,1.8
same,IC50,[1]; [4],20 µM
Cc1cc(Cc2cc(C)cc(C(C)(C)C)c2O)c(O)c(Cc2cc(C)cc(C(C)(C)C)c2O)c1 [Compound 62914],Fold Select. (Neo/Bcl-xL),[1]; Table 13,> 20 and 22.7
Cc1cc(Sc2cc(C)cc(C(C)(C)C)c2O)c(O)c(C(C)(C)C)c1 [Compound 67488],Fold Select. (Neo/Bcl-XL),[1]; Table 10,6.8
same,IC50,[1]; [4],14.6 µM
Cc1cc(Cl)cc(Cc2cc(Cl)cc(C)c2O)c1O [Compound 77122],IC50,[2]; Table 10,6.6 µM
same,Fold Select. (Neo/Bcl-XL),[1]; Table 10,3.3
same,IC50,[1]; [4],2 µM
COc1ccccc1Cc1ccccc1OC [Compound 78834],Fold Select. (Neo/Bcl-XL),[1]; Table 11,0
Cc1cccc(Cc2cccc(C)c2O)c1O [Compound 85476],IC50,[2]; Table 10,55.3 µM
same,Fold Select. (Neo/Bcl-XL),[1]; Table 10,2.9
same,IC50,[1]; [4],18.8 µM
CN(Cc1cc(Cl)cc(Cl)c1O)Cc1c(O)ccc2ccccc12 [Compound 85479],EC50,"[2]; Table 18, read-out: Neo",14.5 µM
same,Neo/Bcl-XL,[1]; Table 18,5.8
same,EC50,"[1]; Table 18, read-out: Bcl-XL",2.5 µM
CC(C)c1ccc(S(=O)(=O)c2ccc([N+](=O)[O-])cc2[N+](=O)[O-])cc1 [Compound 85653],IC50,[2]; Table 15,12 µM
same,Fold Selectivity (Neo/Bcl-XL),[1]; Table 15,2.7
same,IC50,[1]; [5],4.5 µM
CCN(Cc1cc(Cl)cc(C)c1O)Cc1c(O)ccc2ccccc12 [Compound 88850],EC50,"[2]; Table 18, read-out: Neo",12 µM
same,Neo/Bcl-XL,[1]; Table 18,2.7
same,EC50,"[1]; Table 18, read-out: Bcl-XL",4.5 µM
CN(Cc1cc(Br)cc(Br)c1O)Cc1c(O)ccc2ccccc12 [Compound 88852],EC50,"[2]; Table 18, read-out: Neo",21.5 µM
same,Neo/Bcl-XL,[1]; Table 18,5.8
same,EC50,"[1]; Table 18, read-out: Bcl-XL",3.7 µM
O=[N+]([O-])c1ccc(S(=O)(=O)Cc2ccccc2)c([N+](=O)[O-])c1 [Compound 122657],IC50,[2]; Table 15,13.5 µM
same,Fold Selectivity (Neo/Bcl-XL),[1]; Table 15,3.9
same,IC50,[1]; [5],3.5 µM
COc1cc(C)ccc1C(=O)c1ccc(C)cc1OC [Compound 143532],Fold Select. (Neo/Bcl-XL),[1]; Table 11,0
Cc1cc(O)c(O)c(Oc2cc(C)cc(O)c2O)c1 [Compound 330927],Fold Select. (Neo/Bcl-XL),[1]; Table 10,5
same,IC50,[1]; [4],19.8 µM
